According to patent US8367367B2, “Kit for positively detecting toxic material” (Samsung Electronics Co., Ltd., priority 2006, dated 2013):
Read-outs that look alike come from different tables or passages of the source.

Key:
[1] = tested on: electron transfer system of the sub-mitochondrial particles; conditions: 10 min
Description: FIG. 3A is a graph illustrating the pH values at one-minute intervals when 20 wt % of ethanol, (toxic material) and 20 wt % of sorbitol (non-toxic material) are added to sub-mitochondrial particles and an electron donor to cause reactions.
FIGS. 5A and 5B illustrate an exemplary embodiment of a method of positively detecting toxic materials in which phenolphthalein is used as a pH indicator. FIG. 5A is a graph illustrating pH values at two-minute intervals when 20 wt % of ethanol (toxic material), 2.5 wt % of ethanol (toxic material), and 20 wt % of sorbitol (non-toxic material) were added to sub-mitochondrial particles and an electron donor to cause reactions. FIG. 5B is a graph and showing the final pH value of each reactant after the reaction solutions were allowed to react for 10 minutes according to the reaction described in FIG. 5A.

[2] = tested on: electron transfer system of the sub-mitochondrial particles
Description: NaOH was adequately added to a pH indicator, phenol red, to adjust the pH to 10. […] The reaction resultants obtained by the above process and a phenol red solution were mixed together with the weight ratio of 1:1 to identify the color of the mixture solution.

SMILES	final pH of the reaction resultant ([1]; 2.5 wt %)	final pH of the reaction resultant ([1]; 20 wt %)	color of the mixture solution (phenol red) [2]
CCO [ethanol]	8.16	6.43	
OC[C@@H](O)[C@@H](O)[C@H](O)[C@@H](O)CO [sorbitol]		9.17	remain the same
